Experimental data from patent publication US6833456B2, “Indolyl-urea derivatives of thienopyridines useful as antiangiogenic agents, and methods for their use” (Agouron Pharmaceuticals, Inc., priority 2002, dated 2004).
Where “and” joins values, the source holds several entries; their conditions need not be identical. Equal values may be shown once.

What was measured:
[1] = biological target: T1, unphosphorylated VEGF-R2Δ50 (FLVK) (Homo sapiens, UniProt P35968, DEL940-989/E990V); assay: VEGF-R2 coupled spectrophotometric assay, unphosphorylated construct (FLVK); type: biochemical; settings: for inhibition at 0.05 µM: percent inhibition at 50 nM
T1 construct: VEGF-R2Δ50 contains residues 806-939 and 990-1171; made in house; host or cells: baculovirus/insect cell system
Method in brief: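 Human VEGF-R2Δ50 cytosolic kinase (residues 806-939/990-1171, E990V), baculovirus-expressed, unphosphorylated form. PK/LDH-coupled NADH oxidation at 340 nm with 20 mM poly(E4Y1), 3 mM ATP, 60 mM MgCl2, 2 mM MnCl2, 200 mM HEPES pH 7.5, 5-40 nM enzyme; Ki fitted by Morrison equation.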

KDR (VEGFR2) = biological target: T2, KDR (VEGFR2) (Homo sapiens, UniProt P35968); assay: KDR (VEGFR2) phosphorylation in PAE-KDR cells assay; type: cell-based; settings: PAE cells overexpressing human KDR, VEGF stimulated; read-out: PAE KDR autophos IC50
T2 construct: expressed in transfected cells; host or cells: porcine aorta endothelial (PAE) cells
Method in brief: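 PAE cells overexpressing human KDR, serum-starved 16 h (0.1% FBS), treated with compound 1 h at 37° C (0.5% DMSO), then stimulated 8 min with 500 ng/ml VEGF plus 2 mM Na3VO4. Lysate KDR phosphotyrosine measured by capture ELISA (anti-pY HRP, 450 nm); IC50 by four-parameter fit.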

T2 sequence (P35968 20-1356): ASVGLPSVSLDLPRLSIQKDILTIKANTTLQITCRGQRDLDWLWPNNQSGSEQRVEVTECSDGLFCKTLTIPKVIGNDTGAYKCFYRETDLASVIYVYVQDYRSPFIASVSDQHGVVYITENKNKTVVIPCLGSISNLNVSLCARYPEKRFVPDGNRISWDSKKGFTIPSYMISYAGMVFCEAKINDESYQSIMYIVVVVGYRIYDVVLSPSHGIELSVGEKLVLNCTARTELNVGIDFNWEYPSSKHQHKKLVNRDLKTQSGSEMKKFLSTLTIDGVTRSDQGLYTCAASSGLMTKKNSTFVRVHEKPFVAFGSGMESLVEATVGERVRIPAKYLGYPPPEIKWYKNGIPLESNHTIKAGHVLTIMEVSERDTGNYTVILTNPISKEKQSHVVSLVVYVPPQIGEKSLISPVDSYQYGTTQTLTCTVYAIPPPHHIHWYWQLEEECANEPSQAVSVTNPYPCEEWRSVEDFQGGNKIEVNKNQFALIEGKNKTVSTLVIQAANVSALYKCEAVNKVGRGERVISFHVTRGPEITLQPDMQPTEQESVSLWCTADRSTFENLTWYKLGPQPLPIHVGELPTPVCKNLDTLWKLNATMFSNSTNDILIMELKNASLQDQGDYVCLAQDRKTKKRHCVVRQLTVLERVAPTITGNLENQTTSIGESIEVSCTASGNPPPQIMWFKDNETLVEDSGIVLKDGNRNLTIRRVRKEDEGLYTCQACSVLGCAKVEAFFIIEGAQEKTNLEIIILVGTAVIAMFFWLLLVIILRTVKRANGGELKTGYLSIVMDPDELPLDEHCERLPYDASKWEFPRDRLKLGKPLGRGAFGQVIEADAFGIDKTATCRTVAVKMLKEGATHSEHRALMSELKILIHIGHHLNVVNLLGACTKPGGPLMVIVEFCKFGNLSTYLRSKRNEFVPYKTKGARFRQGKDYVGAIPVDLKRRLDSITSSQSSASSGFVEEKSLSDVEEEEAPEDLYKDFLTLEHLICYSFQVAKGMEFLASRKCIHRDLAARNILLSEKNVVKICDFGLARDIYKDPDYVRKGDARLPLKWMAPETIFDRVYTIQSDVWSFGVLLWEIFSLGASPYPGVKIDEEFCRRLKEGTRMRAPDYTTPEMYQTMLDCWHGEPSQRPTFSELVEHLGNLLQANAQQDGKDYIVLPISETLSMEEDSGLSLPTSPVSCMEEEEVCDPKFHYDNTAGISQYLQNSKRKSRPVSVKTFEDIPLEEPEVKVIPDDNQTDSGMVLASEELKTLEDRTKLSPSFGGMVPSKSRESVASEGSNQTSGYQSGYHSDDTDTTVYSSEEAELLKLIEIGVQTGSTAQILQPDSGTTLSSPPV
T1 sequence (P35968 with tags, fused parts or gaps DEL940-989/E990V limits assumed): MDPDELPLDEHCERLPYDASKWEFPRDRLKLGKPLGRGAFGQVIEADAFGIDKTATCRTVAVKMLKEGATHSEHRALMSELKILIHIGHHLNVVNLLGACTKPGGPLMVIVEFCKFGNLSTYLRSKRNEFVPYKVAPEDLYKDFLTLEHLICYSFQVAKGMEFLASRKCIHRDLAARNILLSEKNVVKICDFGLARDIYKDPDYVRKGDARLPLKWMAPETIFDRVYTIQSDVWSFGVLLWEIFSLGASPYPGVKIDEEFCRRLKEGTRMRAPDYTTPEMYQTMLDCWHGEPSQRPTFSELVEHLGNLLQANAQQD

Ki [1] | inhibition at 0.05 µM [1] | IC50 (KDR (VEGFR2)) | Structure (SMILES)
0.37 nM | 96% | 1.6 nM | C#CCNC(=O)n1c(C)cc2cc(Nc3ccnc4cc(C(=O)N5CC[C@@H](O)C5)sc34)ccc21 [Example 1o, 5-[2-(3R-Hydroxy-pyrrolidine-1-carbonyl)-thieno[3,2-b]pyridin-7-ylamino]-2-methyl-indole-1-carboxylic acid prop-2-ynylamide]
 | 94% |  | CNC(=O)n1c(C)cc2cc(Nc3ccnc4cc(C(=O)N5CC[C@@H](OC)C5)sc34)ccc21 [Example 1l, 5-[2-(3R-Methoxy-pyrrolidine-1-carbonyl)-thieno[3,2-b]pyridin-7-ylamino]-2-methyl-indole-1-carboxylic acid methylamide]
1.35 nM | 93% | 0.43 nM and 0.52 nM | CNC(=O)n1c(C)cc2cc(Oc3ccnc4cc(C(=O)N5C[C@H](OC)C[C@H]5CO)sc34)ccc21 [Example 3o, 5-[2-(2-Hydroxymethyl-4-methoxy-pyrrolidine-1-carbonyl)-thieno[3,2-b]pyridin-7-yloxy]-2-methyl-indole-1-carboxylic acid methylamide]
0.16 nM | 95% | 1.32 nM and 1.38 nM | Cc1cc2cc(Nc3ccnc4cc(C(=O)N5CCC[C@H]5CO)sc34)ccc2n1C(=O)NC1CC1 [Example 2e, 5-(2-[(S)-2-(hydroxymethyl)pyrrolidine-1-carbonyl]thieno[3,2-b]pyridin-7-ylamino)-2-methylindole-1-carboxylic acid cyclopropylamide]
0.62 nM | 99% | 0.35 nM and 0.16 nM and 0.167 nM | CNC(=O)n1c(C)cc2cc(Oc3ccnc4cc(C(=O)N5CC[C@@H](O)C5)sc34)ccc21 [Example 4n, 5-[2-(3R-Hydroxy-pyrrolidine-1-carbonyl)-thieno[3,2-b]pyridin-7-yloxy]-2-methyl-indole-1-carboxylic acid methylamide]
1.1 nM | 96% |  | CNC(=O)n1c(C)cc2cc(Oc3ccnc4cc(C(=O)N5CCC[C@H]5COC)sc34)ccc21 [Example 4a, 5-(2-[(S)-2-(methoxymethyl)pyrrolidine-1-carbonyl]thieno[3,2-b]pyridin-7-yloxy)-2-methylindole-1-carboxylic acid methylamide]
0.45 nM | 91% | 0.72 nM and 0.33 nM and 0.35 nM | CNC(=O)n1c(C)cc2cc(Nc3ccnc4cc(-c5nc(C(C)(C)O)cs5)sc34)ccc21 [Example 3a, 5-{2-[4-(1-Hydroxy-1-methyl-ethyl)-thiazol-2-yl]-thieno[3,2-b]pyridin-7-ylamino}-2-methyl-indole-1-carboxylic acid methylamide]
0.431 nM | 100% | 0.256 nM and 0.52 nM and 0.237 nM | C#CCNC(=O)n1c(C)cc2c(F)c(Oc3ccnc4cc(C(=O)N5CCC[C@H]5CO)sc34)ccc21 [Example 5e, 4-Fluoro-5-[2-(2S-hydroxymethyl-pyrrolidine-1-carbonyl)-thieno[3,2-b]pyridin-7-yloxy]-2-methyl-indole-1-carboxylic acid prop-2-ynylamide]
0.14 nM | 96% |  | CNC(=O)n1c(C)cc2cc(Oc3ccnc4cc(C(=O)N5CCC[C@@H]5COC)sc34)ccc21 [Example 4e, 5-[2-(2R-Methoxymethyl-pyrrolidine-1-carbonyl)-thieno[3,2-b]pyridin-7-yloxy]-2-methyl-indole-1-carboxylic acid methylamide]
0.32 nM | 98% |  | Cc1cc2cc(Nc3ccnc4cc(-c5nccn5C)sc34)ccc2n1C(=O)NC1CC1 [Example 2d, 5-(2-[1-methyl-1H-imidazol-2-yl]thieno[3,2-b]pyridin-7-ylamino)-2-methylindole-1-carboxylic acid cyclopropylamide]
0.67 nM | 98% |  | Cc1cc2cc(Nc3ccnc4cc(C(=O)N5CCC[C@@H]5CO)sc34)ccc2n1C(=O)NC1CC1 [Example 1c, 5-[2-(2R-Hydroxymethyl-pyrrolidine-1-carbonyl)-thieno[3,2-b]pyridin-7-ylamino]-2-methyl-indole-1-carboxylic acid cyclopropylamide]
